US10626136B2, “Compositions and methods for improving Rebaudioside X solubility” (The Coca-Cola Company, priority 2012, dated 2020)

What was measured:
Format in all cases: physicochemical
[1] = Approximate water solubility by solvent addition method (aliquots of water, visual inspection)
Protocol: The approximate aqueous solubility can be determined by a solvent addition method in which a weighed sample is treated with aliquots of water. The mixture is generally vortexed and/or sonicated between additions to facilitate dissolution. Complete dissolution of the test material is determined by visual inspection. Solubility is estimated based on the total solvent used to provide complete dissolution.
The approximate water solubility of Form A and amorphous Rebaudioside X were determined by a solvent addition method in which a weighed sample was treated with aliquots of water. The mixture was generally vortexed and/or sonicated between additions to facilitate dissolution. Complete dissolution of the test material was determined by visual inspection. Solubility was estimated based on the total solvent used to provide complete dissolution. The actual solubility may be greater than the value calculated because of the use of solvent aliquots that were too large or due to a slow rate of dissolution.
The approximate solubility of the complexes was measured by a solvent addition method in which a weighed sample was treated with aliquots of water. The mixture was generally vortexed and/or sonicated between additions to facilitate dissolution. Complete dissolution of the test material was determined by visual inspection. Solubility was estimated based on the total solvent used to provide complete dissolution. The actual solubility may be greater than the value calculated because of the use of solvent aliquots that were too large or due to a slow rate of dissolution.

[2] = Water solubility of material before and after the water process (Example 4); conditions: Example 4, before and after heating to 121° C. in water and spray drying
[3] = Dynamic Vapor Sorption (DVS)
Protocol: The Dynamic Vapor Sorption (DVS) DVS data were collected on a VTI SGA-100 Vapor Sorption Analyzer. NaCl and PVP were used as calibration standards. The sample was not dried prior to analysis. Sorption and desorption data were collected over a range from 5 to 95% RH at 10% RH increments under a nitrogen purge. The equilibrium criterion used for analysis was less than 0.0100% weight change in 5 minutes with a maximum equilibration time of 3 hours. Data were not corrected for the initial moisture content of the samples.

[4] = Duration of clarity of aqueous solutions, with or without filtration
From the text: The water solubility of amorphous Rebaudioside X prepared according to Example 4 was compared in various test material/water ratios with or without filtration prior to solubility determination. Generally, filtration performed after dissolution of sample assist the duration of clarity of the sample (or delays the precipitation/recrystallization of sample).

[5] = Equilibrium solubility in water by UV (205 nm)
Protocol: Samples were analyzed with a Cary 50 UV-Vis dual beam spectrophotometer. The detector was zeroed with a cuvette filled with water prior to sample analysis. Samples were analyzed at room temperature in 1.0 cm quartz cuvette using a scan rate of 600 nm/min in a range of 200-400 nm.
25.8 mg of amorphous Rebaudioside X was added to a 10-mL volumetric flask and dissolved 10 mL with water. This stock solution was diluted to five concentration levels for UV measurement.
A calibration curve at 205 nm was established (Abs at 205 nm vs. concentration) to provide the equation y=5.0625x+0.0022. R^2 was 0.9999. This equation was used for the subsequent determination of Rebaudioside X concentrations.
250 mg of amorphous Rebaudioside X was added to an amber vial and 10 mL of water was added. The mixture was stirred at room temperature about 10 minutes to yield a transparent solution with only small amount of solid remaining. The mixture became opaque rapidly. The mixture was placed on a mechanical oscillator set at a speed of 250 and 25° C. At the sampling time point of 1, 16, 24, 48, 72, 96, and 192 hours, an aliquot of the slurry was transferred to a centrifuge tube and separated at a speed of 16K rcf for 15 minutes. 200 μL of the clear supernatant was transferred to a 50-mL volumetric flask, 10 mL of water was added and mixed well before UV analysis.

For C=C1C[C@@]23CCC4[C@](C)(C(=O)OC5OC(CO)C(O)C(OC6OC(CO)C(O)C(O)C6O)C5OC5OC(CO)C(O)C(O)C5O)CCC[C@@]4(C)[C@@H]2CCC1(OC1OC(CO)C(O)C(OC2OC(CO)C(O)C(O)C2O)C1OC1OC(CO)C(O)C(O)C1O)C3 (stereo partly drawn) [Amorphous (water process)], the “Approximate Water Solubility” value [1] was >10000 µg/mL.

With C=C1C[C@@]23CCC4[C@](C)(C(=O)OC5OC(CO)C(O)C(OC6OC(CO)C(O)C(O)C6O)C5OC5OC(CO)C(O)C(O)C5O)CCC[C@@]4(C)[C@@H]2CCC1(OC1OC(CO)C(O)C(OC2OC(CO)C(O)C(O)C2O)C1OC1OC(CO)C(O)C(O)C1O)C3 (stereo partly drawn) [Form A] the “Approximate Water Solubility” value [1] was 1400 µg/mL, the approximate aqueous solubility [1] was 0.1 to about 0.14 and the water solubility ([2]; listed as Form A Rebaudioside X) was 0.05%.

In the case of C=C1C[C@@]23CCC4[C@](C)(C(=O)OC5OC(CO)C(O)C(OC6OC(CO)C(O)C(O)C6O)C5OC5OC(CO)C(O)C(O)C5O)CCC[C@@]4(C)[C@@H]2CCC1(OC1OC(CO)C(O)C(OC2OC(CO)C(O)C(O)C2O)C1OC1OC(CO)C(O)C(O)C1O)C3 (stereo partly drawn) [Amorphous (ethanol process)], the “Approximate Water Solubility” value [1] is reported as >10000 µg/mL.

With C=C1C[C@@]23CC[C@H]4[C@@](C)(CCC[C@@]4(C)C(=O)O[C@@H]4O[C@H](CO)[C@@H](O)[C@H](O[C@@H]5O[C@H](CO)[C@@H](O)[C@H](O)[C@H]5O)[C@H]4O[C@@H]4O[C@H](CO)[C@@H](O)[C@H](O)[C@H]4O)[C@@H]2CC[C@]1(O[C@@H]1O[C@H](CO)[C@@H](O)[C@H](O[C@@H]2O[C@H](CO)[C@@H](O)[C@H](O)[C@H]2O)[C@H]1O[C@@H]1O[C@H](CO)[C@@H](O)[C@H](O)[C@H]1O)C3 [amorphous Rebaudioside X] the “solids recovered after DVS” value ([3]; XRPD after the DVS analysis) was “x-ray amorphous”, the “weight loss upon desorption” value ([3]; desorption from 95% to 5% RH) was 26.0 wt % and the “weight loss upon equilibration” value ([3]; equilibration at 5% RH) was 3.1 wt %. The “weight gain on sorption” value ([3]; increasing the relative humidity from 5% to 95% RH) was 26.3 wt %, the hygroscopicity ([3]; judged from the large weight change) was “hygroscopic” and the “Duration of Clarity of Sample” value ([4]; Sample 1: 250 mg/500 mL water, not filtered) was >60 days. For the same compound, the “Duration of Clarity of Sample” value ([4]; Sample 2: 500 mg/500 mL water, not filtered) was >60 days, the “Duration of Clarity of Sample” value ([4]; Sample 4: 1000 mg/500 mL water, not filtered) was “^bMost Rebaudioside X dissolved quickly. However, a small amount of floating particles remained” and the “Duration of Clarity of Sample” value ([4]; Sample 6: 1750 mg/500 mL water, not filtered) was ~0.12 days. For the same compound, the “Duration of Clarity of Sample” value ([4]; Sample 8: 1000 mg/100 mL water, filtered (0.22 μm membrane)) was ~0.083 days, the “Average Sample Concentration” value ([5]; 250 mg in 10 mL water, 25° C.) was “Average Sample Concentration = 2.6 mg/mL” and the “Original Sample Concentration” value ([5]; 250 mg in 10 mL water, 25° C., sampling time 1 hrs) was 5.8 mg/mL. For the same compound, the “Original Sample Concentration” value ([5]; 250 mg in 10 mL water, 25° C., sampling time 16 hrs) was 2.7 mg/mL, the “Original Sample Concentration” value ([5]; 250 mg in 10 mL water, 25° C., sampling time 24 hrs) was 2.6 mg/mL and the “Original Sample Concentration” value ([5]; 250 mg in 10 mL water, 25° C., sampling time 48 hrs) was 2.5 mg/mL. The “Original Sample Concentration” value ([5]; 250 mg in 10 mL water, 25° C., sampling time 72 hrs) was 2.8 mg/mL, the “Original Sample Concentration” value ([5]; 250 mg in 10 mL water, 25° C., sampling time 96 hrs) was 2.8 mg/mL and the “Original Sample Concentration” value ([5]; 250 mg in 10 mL water, 25° C., sampling time 192 hrs) was 2.6 mg/mL. For the same compound, the “XRPD pattern of the solids recovered after solubility testing” value ([5]; after 8 days solubility testing in water) was “consistent with Form A, indicating conversion”, the approximate aqueous solubility [1] was “greater than 0.3%” and the “approximate water solubility compared to Form A Rebaudioside X” value [1] was “substantially increased”. For the same compound, the water solubility [2] was “greater than 1%”.
